# Test results from the NIST ThermoML archive (doi:10.1016/j.jct.2008.08.010).
# Numbers after ± are expanded uncertainties.
# Assays:
# [1] = refractive index (Na D-line) (dimensionless); settings: 101.33 kPa, Liquid, Standard Abbe refractometry
# [2] = 101.33 kPa, Liquid, Vibrating tube method
Structure (SMILES),refractive index ([1]; 298.2 K),refractive index ([1]; 299.2 K),refractive index ([1]; 300.2 K),refractive index ([1]; 301.2 K),refractive index ([1]; 302.2 K),refractive index ([1]; 303.2 K),refractive index ([1]; 304.2 K),refractive index ([1]; 305.2 K),refractive index ([1]; 306.2 K),refractive index ([1]; 307.2 K),refractive index ([1]; 308.2 K),mass density ([2]; 298.2 K),mass density ([2]; 299.2 K),mass density ([2]; 300.2 K),mass density ([2]; 301.2 K),mass density ([2]; 302.2 K),mass density ([2]; 303.2 K),mass density ([2]; 304.2 K),mass density ([2]; 305.2 K),mass density ([2]; 306.2 K),also measured
CCCCn1cc[n+](C)c1.F[P-](F)(F)(F)(F)F [1-butyl-3-methylimidazolium hexafluorophosphate],1.4095 ± 0.0007,1.4093 ± 0.0007,1.4091 ± 0.0007,1.4089 ± 0.0007,1.4087 ± 0.0007,1.4085 ± 0.0007,1.4083 ± 0.0007,1.4081 ± 0.0007,1.4079 ± 0.0007,1.4077 ± 0.0007,1.4075 ± 0.0007,1363.9 ± 0.9 kg/m3,1363.2 ± 0.9 kg/m3,1362.4 ± 0.9 kg/m3,1361.6 ± 0.9 kg/m3,1360.8 ± 0.9 kg/m3,1360.1 ± 0.9 kg/m3,1359.3 ± 0.9 kg/m3,1358.5 ± 0.9 kg/m3,1357.8 ± 0.9 kg/m3,mass density ([2]; 307.2 K): 1357 ± 0.9 kg/m3; mass density ([2]; 308.2 K): 1356.2 ± 0.9 kg/m3; mass density ([2]; 313.2 K): 1352.8 ± 0.9 kg/m3; mass density ([2]; 318.2 K): 1348.8 ± 0.9 kg/m3; mass density ([2]; 323.2 K): 1344.9 ± 0.9 kg/m3; mass density ([2]; 333.2 K): 1336.9 ± 0.9 kg/m3; mass density ([2]; 343.2 K): 1329 ± 0.9 kg/m3; mass density ([2]; 353.2 K): 1321.1 ± 0.9 kg/m3
CCCCn1cc[n+](C)c1.COS(=O)(=O)[O-] [1-butyl-3-methylimidazolium methyl sulfate],1.4792 ± 0.0008,1.4789 ± 0.0008,1.4787 ± 0.0008,1.4784 ± 0.0008,1.4782 ± 0.0008,1.4779 ± 0.0008,1.4776 ± 0.0008,1.4774 ± 0.0008,1.4771 ± 0.0008,1.4768 ± 0.0008,1.4766 ± 0.0008,1205.7 ± 1.4 kg/m3,1205 ± 1.4 kg/m3,1204.4 ± 1.4 kg/m3,1203.8 ± 1.4 kg/m3,1203.1 ± 1.4 kg/m3,1202.5 ± 1.4 kg/m3,1201.9 ± 1.4 kg/m3,1201.2 ± 1.4 kg/m3,1200.6 ± 1.4 kg/m3,mass density ([2]; 307.2 K): 1199.9 ± 1.4 kg/m3; mass density ([2]; 308.2 K): 1199.3 ± 1.4 kg/m3; mass density ([2]; 313.2 K): 1196.2 ± 1.4 kg/m3; mass density ([2]; 318.2 K): 1193 ± 1.4 kg/m3; mass density ([2]; 323.2 K): 1189.9 ± 1.4 kg/m3; mass density ([2]; 333.2 K): 1183.5 ± 1.4 kg/m3; mass density ([2]; 343.2 K): 1177 ± 1.4 kg/m3; mass density ([2]; 353.2 K): 1170.6 ± 1.4 kg/m3
CCCCn1cc[n+](C)c1.F[B-](F)(F)F [1-butyl-3-methylimidazolium tetrafluoroborate],1.4218 ± 0.0007,1.4216 ± 0.0007,1.4213 ± 0.0007,1.4211 ± 0.0007,1.4208 ± 0.0007,1.4206 ± 0.0007,1.4204 ± 0.0007,1.4201 ± 0.0007,1.4199 ± 0.0007,1.4197 ± 0.0007,1.4195 ± 0.0007,1201 ± 0.9 kg/m3,1200.3 ± 0.9 kg/m3,1199.6 ± 0.9 kg/m3,1199 ± 0.9 kg/m3,1198.3 ± 0.9 kg/m3,1197.6 ± 0.9 kg/m3,1196.9 ± 0.9 kg/m3,1196.2 ± 0.9 kg/m3,1195.6 ± 0.9 kg/m3,mass density ([2]; 307.2 K): 1194.9 ± 0.9 kg/m3; mass density ([2]; 308.2 K): 1194.2 ± 0.9 kg/m3; mass density ([2]; 313.2 K): 1190.8 ± 0.9 kg/m3; mass density ([2]; 318.2 K): 1187.4 ± 0.9 kg/m3; mass density ([2]; 323.2 K): 1184 ± 0.9 kg/m3; mass density ([2]; 333.2 K): 1177.2 ± 0.9 kg/m3; mass density ([2]; 343.2 K): 1170.4 ± 0.9 kg/m3; mass density ([2]; 353.2 K): 1163.6 ± 0.9 kg/m3
CCCCn1cc[n+](C)c1.O=S(=O)([O-])C(F)(F)F [1-butyl-3-methylimidazolium trifluoromethanesulfonate],1.4368 ± 0.0008,1.4366 ± 0.0008,1.4364 ± 0.0008,1.4362 ± 0.0008,1.436 ± 0.0008,1.4357 ± 0.0008,1.4355 ± 0.0008,1.4352 ± 0.0008,1.435 ± 0.0008,1.4348 ± 0.0008,1.4346 ± 0.0008,1303.8 ± 1.5 kg/m3,1303 ± 1.5 kg/m3,1302.3 ± 1.5 kg/m3,1301.5 ± 1.5 kg/m3,1300.8 ± 1.5 kg/m3,1300 ± 1.5 kg/m3,1299.2 ± 1.5 kg/m3,1298.5 ± 1.5 kg/m3,1297.7 ± 1.5 kg/m3,mass density ([2]; 307.2 K): 1297 ± 1.5 kg/m3; mass density ([2]; 308.2 K): 1296.2 ± 1.5 kg/m3; mass density ([2]; 313.2 K): 1292.4 ± 1.5 kg/m3; mass density ([2]; 318.2 K): 1288.6 ± 1.5 kg/m3; mass density ([2]; 323.2 K): 1284.7 ± 1.5 kg/m3; mass density ([2]; 333.2 K): 1277.1 ± 1.5 kg/m3; mass density ([2]; 343.2 K): 1269.5 ± 1.4 kg/m3; mass density ([2]; 353.2 K): 1261.9 ± 1.4 kg/m3
